Results from US6737383B1, “Herbicidal oxadiazolidines” (priority 1999, dated 2004).

Experiments:
smallflower flatsedge = experiment: Test B flood test smallflower flatsedge; type: in vivo, Cyperus difformis
Summary of the method: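 Plants were grown to the 2-leaf stage before treatment with test chemical, then held in a greenhouse for twelve to sixteen days. Injury was visually rated against untreated controls on a 0–10 scale, where 0 is no effect and 10 is complete control.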

rape = experiment: Test B pre/postemergence rape; type: in vivo, Brassica napus
Summary of the method: (§1)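 Response is a visual 0-to-10 score relative to untreated plants, where 0 means no effect and 10 means complete control, taken twelve to sixteen days after application. Treatments went onto soil at planting and onto foliage of 1- to 4-leaf plants, using a surfactant-containing non-phytotoxic solvent.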

corn = experiment: Test B pre/postemergence corn; type: in vivo, Zea mays
Summary of the method: as §1

soybean = experiment: Test B pre/postemergence soybean; type: in vivo, Glycine max
Summary of the method: as §1

[1] = Rate 62 g/ha, headed Pre-emergence (flood test species), scale 0 to 10 (0 no effect, 10 complete control)
[2] = Rate 125 g/ha, Pre-emergence, flood test species, scale 0 to 10 where 0 is no effect and 10 is complete control
[3] = Rate 250 g/ha, Pre-emergence, flood-test species, scale 0 to 10, 0 is no effect, 10 is complete control
[4] = Postemergence, Rate 31 g/ha, visual rating, scale 0 to 10 (0 no effect, 10 complete control)
[5] = Preemergence, Rate 31 g/ha, visual rating, scale 0 to 10 (0 no effect, 10 complete control)
[6] = Preemergence, Rate 62 g/ha, scale of 0 to 10 where 0 is no effect and 10 is complete control
[7] = Preemergence, Rate 250 g/ha, scale of 0 to 10 where 0 is no effect and 10 is complete control
[8] = Rate 62 g/ha, Postemergence, scale 0 to 10 (0 no effect, 10 complete control)
[9] = Rate 125 g/ha, Postemergence, scale of 0 to 10 where 0 is no effect and 10 is complete control
[10] = Rate 125 g/ha, Preemergence, scale of 0 to 10 where 0 is no effect and 10 is complete control
[11] = Rate 250 g/ha, Postemergence, scale of 0 to 10 where 0 is no effect and 10 is complete control
[12] = Rate 500 g/ha, Pre-emergence, flood test species, scale 0 to 10 (0 no effect, 10 complete control)
[13] = Preemergence, Rate 500 g/ha, scale of 0 to 10 where 0 is no effect and 10 is complete control
[14] = Rate 500 g/ha, Postemergence, scale 0 to 10, 0 no effect, 10 complete control
[15] = Postemergence, Rate 125 g/ha, scale 0 to 10, 0 is no effect, 10 is complete control

Row | Structure (SMILES) | S. Flatsedge plant response rating (smallflower flatsedge; [1]) | S. Flatsedge plant response rating (smallflower flatsedge; [2]) | S. Flatsedge plant response rating (smallflower flatsedge; [3]) | Rape plant response rating (rape; [6]) | Rape plant response rating (rape; [7]) | Rape plant response rating (rape; [8]) | Rape plant response rating (rape; [9]) | Plant response rating, Rape (rape; [11]) | Corn plant response rating (corn; [6]) | Corn plant response rating (corn; [7]) | Corn plant response rating (corn; [8]) | Corn plant response rating (corn; [9]) | Plant response rating, Corn (corn; [11]) | Soybean plant response rating (soybean; [6]) | Soybean plant response rating (soybean; [7]) | Soybean plant response rating (soybean; [8]) | Soybean plant response rating (soybean; [9]) | Plant response rating, Soybean (soybean; [11]) | S. Flatsedge plant response rating (smallflower flatsedge; [12]) | Rape plant response rating (0 to 10 scale) (rape; Preemergence, Rate 125 g/ha) | further results
1 | CC(C)N(C(=O)n1oc(=O)n(CCCCF)c1=O)c1ccc(F)cc1 [Compound 289] | 0 | 0 | 0 | 0 | 10 | 0 | 2 | 2 | 0 | 2 | 0 | 0 | 0 | 0 | 0 | 2 | 3 | 4 |  |  | S. Flatsedge plant response rating (smallflower flatsedge; Rate 31 g/ha, Pre-emergence section (flood test species), scale 0 to 10): 0; Rape plant response rating (rape; [4]): 0; Rape plant response rating (rape; [5]): 0; Rape plant response rating (rape; [10]): 8; Corn plant response rating (corn; [4]): 0; Corn plant response rating (corn; [5]): 0; Corn plant response rating (corn; [10]): 0; Soybean plant response rating (soybean; [4]): 0; Soybean plant response rating (soybean; [5]): 0; Soybean plant response rating (soybean; [10]): 0
2 | CCN(C(=O)n1oc(=O)n(C2CC2)c1=O)C1CCCCC1 [Compound 298] | 0 | 0 | 0 | 0 | 0 | 0 | 0 | 0 | 0 | 0 | 0 | 0 | 0 | 0 | 0 | 0 | 3 | 3 | 0 | 0 | Plant response rating, Rape (rape; [13]): 0; Corn plant response rating (0 to 10 scale) (corn; Preemergence, Rate 125 g/ha): 0; Plant response rating, Corn (corn; [13]): 0; Corn plant response rating (corn; [14]): 0; Soybean plant response rating (0 to 10 scale) (soybean; Preemergence, Rate 125 g/ha): 0; Plant response rating, Soybean (soybean; [13]): 0
3 | Cc1cccc(C(C)(C)C)c1-n1c(=O)on(C(=O)N(c2ccccc2)C(C)C)c1=O [Compound 303] | 0 | 0 | 0 | 0 | 0 | 0 | 0 | 0 | 0 | 0 | 0 | 0 | 0 | 0 | 0 | 2 | 2 | 3 | 0 | 0 | Rape plant response rating (rape; [13]): 0; Corn plant response rating (0 to 10 scale) (corn; Preemergence, Rate 125 g/ha): 0; Corn plant response rating (corn; [13]): 0; Corn plant response rating (corn; [14]): 0; Soybean plant response rating (0 to 10 scale) (soybean; Preemergence, Rate 125 g/ha): 0; Soybean plant response rating (soybean; [13]): 0
4 | CCc1cccc(CC)c1-n1c(=O)on(C(=O)N(c2ccc(F)cc2)C(C)C)c1=O [Compound 304] | 0 | 0 | 0 | 0 | 0 | 0 | 0 | 0 | 0 | 0 | 0 | 0 | 0 | 0 | 0 | 3 | 4 | 5 | 0 | 0 | Rape plant response rating (rape; [13]): 0; Corn plant response rating (0 to 10 scale) (corn; Preemergence, Rate 125 g/ha): 0; Corn plant response rating (corn; [13]): 0; Corn plant response rating (corn; [14]): 0; Soybean plant response rating (0 to 10 scale) (soybean; Preemergence, Rate 125 g/ha): 0; Soybean plant response rating (soybean; [13]): 0
5 | CC(C)N(C(=O)n1oc(=O)n(Cc2ccccc2-c2ccccc2)c1=O)c1ccc(F)cc1 [Compound 313] | 0 | 0 | 0 | 0 | 0 | 0 | 0 | 0 | 0 | 0 | 0 | 0 | 0 | 0 | 0 | 1 | 2 | 3 | 0 | 0 | Rape plant response rating (rape; [13]): 0; Corn plant response rating (0 to 10 scale) (corn; Preemergence, Rate 125 g/ha): 0; Corn plant response rating (corn; [13]): 0; Corn plant response rating (corn; [14]): 0; Soybean plant response rating (0 to 10 scale) (soybean; Preemergence, Rate 125 g/ha): 0; Soybean plant response rating (soybean; [13]): 0
6 | CC(C)N(C(=O)n1oc(=O)n(Cc2nnsc2Cl)c1=O)c1ccc(F)cc1F [Compound 320] | 0 | 0 | 0 | 0 | 0 | 0 | 3 | 3 | 0 | 0 | 0 | 0 | 0 | 0 | 0 | 2 | 3 | 3 | 0 | 0 | Rape plant response rating (rape; [13]): 0; Corn plant response rating (0 to 10 scale) (corn; Preemergence, Rate 125 g/ha): 0; Corn plant response rating (corn; [13]): 0; Corn plant response rating (corn; [14]): 0; Soybean plant response rating (0 to 10 scale) (soybean; Preemergence, Rate 125 g/ha): 0; Soybean plant response rating (soybean; [13]): 0
7 | CC(C)N(C(=O)n1oc(=O)n(C2CC3CCC2C3)c1=O)c1ccc(F)cc1 (stereo not drawn) [Compound 327] | 0 | 0 | 0 | 0 | 0 | 0 |  | 2 | 0 | 0 | 0 |  | 0 | 0 | 0 | 5 |  | 6 | 0 | 0 | Plant response rating, Rape (rape; [15]): 0; Rape plant response rating (rape; [13]): 2; Plant response rating, Rape (rape; [14]): 2; Plant response rating, Corn (corn; [15]): 0; Corn plant response rating (0 to 10 scale) (corn; Preemergence, Rate 125 g/ha): 0; Corn plant response rating (corn; [13]): 0; Plant response rating, Corn (corn; [14]): 0; Plant response rating, Soybean (soybean; [15]): 6; Soybean plant response rating (0 to 10 scale) (soybean; Preemergence, Rate 125 g/ha): 0; Soybean plant response rating (soybean; [13]): 0; Plant response rating, Soybean (soybean; [14]): 7
